# From ChEMBL document CHEMBL4342404, “Anti-cholinesterase hybrids as multi-target-directed ligands against Alzheimer's disease (1998-2018)” (Bioorg Med Chem, 2019)
# Molecular target: Acetylcholinesterase (Homo sapiens, UniProt P22303)
# Experiment: Potency index, ratio of tacrine IC50 for human erythrocyte acetylcholinesterase to compound IC50 for homogenate acetylcholinesterase
# Chain of Acetylcholinesterase (P22303 whole entry): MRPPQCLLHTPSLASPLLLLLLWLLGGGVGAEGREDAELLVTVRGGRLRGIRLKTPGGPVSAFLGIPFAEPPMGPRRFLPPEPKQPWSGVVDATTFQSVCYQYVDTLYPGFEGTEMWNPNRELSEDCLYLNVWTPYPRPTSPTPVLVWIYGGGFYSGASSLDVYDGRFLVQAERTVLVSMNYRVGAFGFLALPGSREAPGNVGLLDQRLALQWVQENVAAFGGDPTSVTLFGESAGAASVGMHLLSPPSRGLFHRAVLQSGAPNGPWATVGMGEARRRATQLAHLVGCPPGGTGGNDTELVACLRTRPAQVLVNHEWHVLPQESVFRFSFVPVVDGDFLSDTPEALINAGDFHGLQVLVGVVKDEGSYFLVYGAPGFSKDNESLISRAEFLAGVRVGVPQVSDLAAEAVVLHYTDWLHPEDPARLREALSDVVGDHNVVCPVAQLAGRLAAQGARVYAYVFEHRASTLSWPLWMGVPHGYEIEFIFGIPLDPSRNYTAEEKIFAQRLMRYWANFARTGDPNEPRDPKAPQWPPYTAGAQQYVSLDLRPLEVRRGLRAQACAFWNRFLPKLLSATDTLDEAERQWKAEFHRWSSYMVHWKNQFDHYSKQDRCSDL
row,SMILES,Ratio IC50
1,O=C(CCCCCNc1c2c(nc3ccccc13)CCCC2)NCCc1c[nH]c2ccccc12,70 to 43000
2,COc1ccc2[nH]cc(CCNC(=O)CCCCNc3c4c(nc5ccccc35)CCCC4)c2c1,70 to 43000
3,COc1ccc2[nH]cc(CCNC(=O)CCCCCNc3c4c(nc5ccccc35)CCCC4)c2c1,70 to 43000
4,COc1ccc2[nH]cc(CCNC(=O)CCCCCNc3c4c(nc5cccc(Cl)c35)CCCC4)c2c1,70 to 43000
5,COc1ccc2[nH]cc(CCNC(=O)CCCCCNc3c4c(nc5cc(Cl)ccc35)CCCC4)c2c1,70 to 43000
6,O=C(CCCCCNc1c2c(nc3cc(Cl)cc(Cl)c13)CCCC2)NCCc1c[nH]c2ccccc12,70 to 43000
7,S=C(CCCCCNc1c2c(nc3ccccc13)CCCC2)NCCc1c[nH]c2ccccc12,70 to 43000
8,O=C(CCCCCNc1c2c(nc3ccc(F)cc13)CCCC2)NCCc1c[nH]c2ccccc12,70 to 43000
9,COc1ccc2[nH]cc(CCNC(=O)CCCCCNc3c4c(nc5cc(Cl)cc(Cl)c35)CCCC4)c2c1,70 to 43000
10,O=C(CCCCCNc1c2c(nc3c(Cl)cccc13)CCCC2)NCCc1c[nH]c2ccccc12,70 to 43000
11,O=C(CCCCCNc1c2c(nc3ccccc13)CCCC2)NCCc1c[nH]c2ccc(O)cc12,70 to 43000
12,S=C(CCCCCCCNc1c2c(nc3ccccc13)CCCC2)NCCc1c[nH]c2ccccc12,70 to 43000
13,COc1ccc2[nH]cc(CCNC(=O)CCCCCCNc3c4c(nc5cc(Cl)cc(Cl)c35)CCCC4)c2c1,70 to 43000
14,O=C(CCCCCCNc1c2c(nc3ccccc13)CCCC2)NCCc1c[nH]c2ccccc12,70 to 43000
15,O=C(CCCCCCCNc1c2c(nc3ccccc13)CCCC2)NCCc1c[nH]c2ccc(O)cc12,70 to 43000
16,O=C(CCCCCCNc1c2c(nc3cc(Cl)cc(Cl)c13)CCCC2)NCCc1c[nH]c2ccccc12,70 to 43000
17,O=C(CCCCNc1c2c(nc3ccccc13)CCCC2)NCCc1c[nH]c2ccccc12,70 to 43000
18,O=C(CCCCCCCNc1c2c(nc3ccccc13)CCCC2)NCCc1c[nH]c2ccccc12,70 to 43000
19,O=C(CCCCCCCNc1c2c(nc3cc(Cl)cc(Cl)c13)CCCC2)NCCc1c[nH]c2ccccc12,70 to 43000
20,COc1ccc2[nH]cc(CCNC(=O)CCCCCCNc3c4c(nc5ccccc35)CCCC4)c2c1,70 to 43000
21,O=C(CCCCCCNc1c2c(nc3cc(Cl)ccc13)CCCC2)NCCc1c[nH]c2ccccc12,70 to 43000
22,COc1ccc2[nH]cc(CCNC(=O)CCCCCCCNc3c4c(nc5ccccc35)CCCC4)c2c1,70 to 43000
23,O=C(CCCCCNc1c2c(nc3cc(Cl)ccc13)CCCC2)NCCc1c[nH]c2ccccc12,70 to 43000

# Test system: not listed separately
# Experiment: Antioxidant activity of compound by ORAC-FL assay relative to trolox
# Type: functional
row,SMILES,Ratio
1,COc1cc(/C=C/C(=O)N(CCC2CCN(Cc3ccccc3)CC2)CC(=O)NCc2ccccc2)ccc1O,4.8 to 8.71
2,COc1cc(/C=C/C(=O)N(CC(=O)Nc2c(C)cccc2Cl)C2CCN(Cc3ccccc3)CC2)ccc1O,4.8 to 8.71
3,COc1cc(/C=C/C(=O)N(CCCC2CCN(Cc3ccccc3)CC2)CC(=O)Nc2ccc3ccccc3c2)ccc1O,4.8 to 8.71
4,COc1cc(/C=C/C(=O)N(CC(=O)Nc2ccc3ccccc3c2)C2CCN(Cc3ccccc3)CC2)ccc1O,4.8 to 8.71
5,COc1cc(/C=C/C(=O)N(CCCC2CCN(Cc3ccccc3)CC2)CC(=O)Nc2c(C)cccc2Cl)ccc1O,4.8 to 8.71
6,COc1cc(/C=C/C(=O)N(CCC2CCN(Cc3ccccc3)CC2)CC(=O)Nc2c(C)cccc2Cl)ccc1O,4.8 to 8.71
7,COc1ccc2[nH]cc(CCNC(=O)CN(C(=O)/C=C/c3ccc(O)c(OC)c3)C3CCN(Cc4ccccc4)CC3)c2c1,4.8 to 8.71
8,COc1cc(/C=C/C(=O)N(CCC2CCN(Cc3ccccc3)CC2)CC(=O)Nc2ccc3ccccc3c2)ccc1O,4.8 to 8.71
9,COc1cc(/C=C/C(=O)N(CCCC2CCN(Cc3ccccc3)CC2)CC(=O)NCc2ccccc2)ccc1O,4.8 to 8.71
10,COc1cc(/C=C/C(=O)N(CC(=O)NCc2ccccc2)C2CCN(Cc3ccccc3)CC2)ccc1O,4.8 to 8.71
